Measured values taken from publication PMC12166061, “Crystallographic fragment screening reveals ligand hotspots in TRIM21 PRY-SPRY domain” (Communications Chemistry, 2025).
Read-outs that look alike come from different tables or passages of the source.

Experiments:
[1] = target: T1, murine TRIM21 PRY-SPRY domain (Mus musculus, UniProt Q62191); experiment: Differential scanning fluorimetry (DSF, ΔTm), mouse TRIM21 PRY-SPRY domain; assay type: binding
T1 construct: mouse TRIM21 PRY-SPRY domain (residues V291-M470, UniProt-ID: Q62191); made in house; host or cells: E. coli BL21(DE3)
T1 sequence (Q62191 291-470): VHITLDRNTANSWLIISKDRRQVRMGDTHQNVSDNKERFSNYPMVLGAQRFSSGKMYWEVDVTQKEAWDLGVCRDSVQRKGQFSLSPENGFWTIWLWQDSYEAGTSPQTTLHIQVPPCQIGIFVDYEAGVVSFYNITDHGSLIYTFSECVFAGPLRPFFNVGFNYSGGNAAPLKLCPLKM
Procedure: (§1) Briefly, recombinant murine and human TRIM21 PRY-SPRY domain at a concentration of 8 μM were mixed with 2 mM compound in their respective SEC buffer. SYPRO Orange (5000×, Invitrogen) was added as a fluorescence probe (1 µl per mL). Subsequently, temperature-dependent protein unfolding profiles were measured using the QuantStudio™ 5 realtime PCR machine (Thermo Fisher). Excitation and emission filters were set to 465 nm and 590 nm, respectively. The temperature was raised with a step rate of 3 °C per minute. Data points were analysed with the internal software (Thermal Shift SoftwareTM Version 1.4, Thermo Fisher) using the Boltzmann equation to determine the inflection point of the transition curve.

[2] = target: T2, full-length hTRIM21 with C-terminal NanoLuc fusion (Homo sapiens, UniProt P19474); conditions: for tracer displacement: compound at 500 µM, NanoBRET; for cell permeability: inferred from intact versus lysed NanoBRET
Procedure: (§4) Full-length hTRIM21 with N- or C-terminal NanoLuc fusion was transfected into HEK293T cells (ATCC) using Fugene 4K (Promega, Cat. No. E5911) transfection reagent according to the manufacturer’s instructions. Following protein expression for 24 h, cells were split again in OptiMEM medium (phenol red free, Life Technologies) to a final amount of 2 × 10^5 cells per mL and 10 µL per well were distributed in a 384 well plate. Next, tracer AL244 (2) was added in concentrations from 3 µM to 6 nM. […] Then, cells were permeabilized through the addition of 25 nL Digitonin (0.05 µg µL^−1). Following another 5-min incubation, filtered luminescence was measured again. The data acquired in the tracer titration was converted into mBRET units (Fluorescence intensity at 610 nm / Luminescence intensity at 450 nm) × 1000 and graphed using Graph-Pad Prism v.9 software.
(§5) A 384-well plate with cells expressing hTRIM21-NLuc was prepared as described above. […] Then, cells were permeabilized with Digitonin and, following 5 min of incubation, filtered luminescence was measured. The data acquired in the competition experiments were converted to mBRET units, then normalized to the positive and negative control and graphed using Graph-Pad Prism v.9 software using a normalized three-parameter curve fit using the following equation: y = 100/[1 + 10(x − logIC50)].

[3] = target: T3, human TRIM21 PRY-SPRY domain (Homo sapiens, UniProt P19474); experiment: Differential scanning fluorimetry (DSF, ΔTm), human TRIM21 PRY-SPRY domain; assay type: binding
T3 construct: Human TRIM21 PRY-SPRY domain (residues V287-I465, UniProt-ID: P19474); His6 (N, cleaved yes); SUMO (N, cleaved yes); made in house; host or cells: E. coli BL21(DE3)
Procedure: as §1

[4] = target: TRIM21; conditions: human TRIM21; read-out: affinity; cited from earlier work
[5] = system: TRIM21 PRY-SPRY domain; experiment: DSF ΔTm of control suramin, species not stated; assay type: binding; conditions: at the screening concentration
Procedure: as §1

[6] = target: T4, His-mTRIM21 PRYSPRY (Mus musculus, UniProt Q62191); experiment: SPR fragment screening and dose response, mouse TRIM21 PRY-SPRY; assay type: binding
T4 construct: mouse TRIM21 PRY-SPRY domain (residues V291-M470, UniProt-ID: Q62191); made in house; host or cells: E. coli BL21(DE3)
T4 sequence (Q62191 291-470): T1 sequence (Q62191 291-470)
Procedure: (§2) His-mTRIM21 PRYSPRY and His-SUMO-hTRIM21 PRY-SPRY were immobilized onto flow channels (FC) FC2, FC3, and FC4 of a Series S sensor chip NTA (Cytiva). […] Proteins (10–20 µg mL^−1 in HBS-P+) were injected at 10 µL min^−1 to achieve response levels of 3500–4300 RU for mTRIM21 and 3600–4000 RU for hTRIM21. Flow channel 1 (FC1) was used as a reference surface. Surface deactivation and nickel stripping were achieved using 1 M ethanolamine and 350 mM ethylenediaminetetraacetic acid (EDTA), respectively.
(§3) Fragment screening was conducted by injecting 500 µM fragments diluted in running buffer (HBS-P+ with 1 mM TCEP and 2% (v/v) dimethyl sulfoxide (DMSO)) over all flow-channels for 30 s at 30 µL/min^−1. To account for surface drift, 50 µM of a control compound (Suramin) was injected every 15 fragment injections, and blank injections were performed every 5 fragments. Responses were analyzed by blank subtraction, reference subtraction (FC1), solvent correction, molecular weight adjustment, and drift correction using Biacore T200 Evaluation Software v3.2.1. The binding threshold for fragment hits was set based on the Suramin-binding response level.
The data was solvent-corrected, reference-subtracted (FC1), and blank-subtracted using the T200 Evaluation Software v3.2.1. Sensorgrams were subsequently replotted using Graphpad v.9 software.

[7] = target: TRIM21; conditions: mouse TRIM21; read-out: affinity; cited from earlier work
[8] = target: T2, full-length hTRIM21 with C-terminal NanoLuc fusion; experiment: cell-based; conditions: tracer AL244 (2)
Procedure: as §4, §5

[9] = target: T5, His-SUMO-hTRIM21 PRY-SPRY (Homo sapiens, UniProt P19474); experiment: SPR fragment screening, human TRIM21 PRY-SPRY; assay type: binding
T5 construct: Human TRIM21 PRY-SPRY domain (residues V287-I465, UniProt-ID: P19474); made in house; host or cells: E. coli BL21(DE3)
Procedure: as §2, §3

[10] = single dose 500 µM fragment, relative response, suramin reference threshold 100 relative RU

T2 sequence (P19474 whole entry, the tested form may be a part): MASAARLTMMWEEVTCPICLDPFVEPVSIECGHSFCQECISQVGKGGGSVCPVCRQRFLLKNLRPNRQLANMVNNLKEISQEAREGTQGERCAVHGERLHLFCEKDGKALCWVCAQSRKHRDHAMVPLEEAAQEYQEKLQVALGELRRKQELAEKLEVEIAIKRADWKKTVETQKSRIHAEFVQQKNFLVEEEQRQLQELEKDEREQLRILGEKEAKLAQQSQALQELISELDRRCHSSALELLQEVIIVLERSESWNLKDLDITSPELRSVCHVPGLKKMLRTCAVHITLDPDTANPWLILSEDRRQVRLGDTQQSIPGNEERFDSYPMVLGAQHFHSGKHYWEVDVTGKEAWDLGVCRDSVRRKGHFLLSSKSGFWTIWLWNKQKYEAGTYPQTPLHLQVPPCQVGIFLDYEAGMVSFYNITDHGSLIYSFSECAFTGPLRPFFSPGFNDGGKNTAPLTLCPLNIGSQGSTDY
T3 sequence (P19474 287-465): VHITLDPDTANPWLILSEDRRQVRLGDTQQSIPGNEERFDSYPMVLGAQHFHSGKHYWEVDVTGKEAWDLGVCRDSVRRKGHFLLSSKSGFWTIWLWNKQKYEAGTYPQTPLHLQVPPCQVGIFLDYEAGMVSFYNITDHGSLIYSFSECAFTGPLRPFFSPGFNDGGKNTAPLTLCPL
T5 sequence (P19474 287-465): as above

CCNC1CCN(c2ccncc2)CC1 [Fragment Z2065616520]
Tm-shift mTRIM21 ([1]; 2 mM compound, 8 μM protein): 0.4 °C | tracer displacement [2]: ~ 40% | Tm-Shift hTRIM21 ([3]; 2 mM compound, 8 μM protein): 0.6 °C

CN(CCCCNS(=O)(=O)c1ccc(N)cc1)C(=O)c1cccs1 [AL266 (4)]
tracer displacement [2]: no activity

Cc1ccc(C(=O)Nc2ccc(S(=O)(=O)O)c3cc(S(=O)(=O)O)cc(S(=O)(=O)O)c23)cc1NC(=O)c1cccc(NC(=O)Nc2cccc(C(=O)Nc3cc(C(=O)Nc4ccc(S(=O)(=O)O)c5cc(S(=O)(=O)O)cc(S(=O)(=O)O)c45)ccc3C)c2)c1 [suramin]
Kd [4]: ~10 µM | ΔTm shift [5]: 2.3 °C | SPR response of reference ([6]; suramin injected at 50 µM as reference, species not stated): 100 relative RU | Kd [7]: ~10 µM

CSc1cc(F)ccc1-c1ccc(C(=O)NCC2CCCCC2)c(S(C)(=O)=O)c1 [AL236 (1)]
EC50 ([8]; NanoBRET EC50 (intact), intact (live) HEK293T cells): 0.197 µM | EC50 ([8]; NanoBRET EC50 (lysed), permeabilized (lysed mode, digitonin) cells): 0.297 µM | cell permeability [2]: high cell permeability

O=C(Nc1ccc(S(=O)(=O)Nc2ccccn2)cc1)c1ccccc1 [AL257 (3)]
EC50 ([8]; NanoBRET EC50 (intact), intact HEK293T cells): 143 µM | EC50 ([8]; NanoBRET EC50 (lysed), lysed cells (digitonin)): 246 µM | tracer displacement [2]: displaced the tracer almost completely | cell permeability [2]: effective cell penetration

c1cnc(N2CCC3(CCOC3)C2)cn1 (centres unmarked) [Fragment Z1401276297]
Tm-shift mTRIM21 ([1]; 2 mM compound, 8 μM protein): 0.2 °C | SPR mTRIM21 (Response) [6, 10]: 374.2 | SPR hTRIM21 (Response) [9, 10]: 640.3 | Tm-Shift hTRIM21 ([3]; 2 mM compound, 8 μM protein): 0.6 °C

CCC(=O)Nc1nc(C)cs1 [Fragment Z30820160]
Tm-shift mTRIM21 [1]: -0.5 °C | SPR mTRIM21 (Response) [6]: 15.6 | SPR hTRIM21 (Response) [9]: 46.05 | Tm-Shift hTRIM21 [3]: -0.2 °C
